How the values were obtained:
[1] = Journal of Pharmaceutical Sciences, 1998, 87, 922-925; cited from earlier work
[2] = test system: pigskin used for simulated human skin
From the text: Freezing pigskin used for simulated human skin was thawed; sites of pesticide application were cleaned and disinfected after thawed;

Row | Compound | transdermal permeability speed, micro-needle versus traditional transdermal drug delivery [1] | penetration of skin [2]
1 | O=C(O)CN(CC(=O)O)Cc1cc2c(cc1O)Oc1cc(O)c(CN(CC(=O)O)CC(=O)O)cc1C21OC(=O)c2ccccc21 [calcein] | increased by four orders of magnitude | 
2 | bovine serum albumin |  | could penetrate the skin

Source: patent publication US20150030642A1, “POLYMER MICRO-NEEDLE ARRAY CHIP, PREPARATION PROCESS AND USE THEREOF” (Technical Institute of Physics and Chemistry of the Chinese …, priority 2012, published 2015)
